In patent EP4722207A1, “OXOISOINDOLINYL-SUBSTITUTED TETRAHYDROPYRIMIDINEDIONE DERIVATIVE AND USE THEREOF” (Gluetacs Therapeutics (Shanghai) Co., Ltd., priority 2023, dated 2024):

Tests used:
IKZF3 = molecular target: T1, IKZF3 (Homo sapiens, UniProt Q96SW2+Q9UKT9); experiment: Western-blot assay, substrate protein degradation in hPBMCs: IKZF3; format: cell-based; conditions: 24 hours of compound treatment, 50 nM and 500 nM
T1 construct: effects of the compounds of the present disclosure on the expression of target proteins in cells; endogenous in cells; host or cells: human PBMCs (hPBMCs)

IKZF2 = molecular target: T2, IKZF2 (Homo sapiens, UniProt Q96SW2+Q9UKS7); experiment: Western-blot assay, substrate protein degradation in hPBMCs: IKZF2; format: cell-based; conditions: 24 hours of compound treatment, 50 nM and 500 nM
T2 construct: effects of the compounds of the present disclosure on the expression of target proteins in cells; endogenous in cells; host or cells: human PBMCs (hPBMCs)
T2 sequence (Q9UKS7 whole entry): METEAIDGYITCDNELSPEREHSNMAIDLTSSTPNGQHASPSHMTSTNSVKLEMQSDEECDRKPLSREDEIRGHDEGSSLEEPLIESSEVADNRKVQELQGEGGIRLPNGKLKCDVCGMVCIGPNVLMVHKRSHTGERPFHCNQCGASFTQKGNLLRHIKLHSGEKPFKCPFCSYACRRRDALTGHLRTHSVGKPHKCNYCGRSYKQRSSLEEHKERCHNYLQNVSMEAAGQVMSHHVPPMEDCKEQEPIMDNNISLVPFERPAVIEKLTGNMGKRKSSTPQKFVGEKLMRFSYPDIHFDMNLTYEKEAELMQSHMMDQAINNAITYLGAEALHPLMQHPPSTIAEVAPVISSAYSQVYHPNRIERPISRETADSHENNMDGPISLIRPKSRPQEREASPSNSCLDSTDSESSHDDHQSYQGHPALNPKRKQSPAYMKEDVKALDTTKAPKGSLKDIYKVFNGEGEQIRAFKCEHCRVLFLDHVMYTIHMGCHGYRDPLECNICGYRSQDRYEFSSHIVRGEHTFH
T2 sequence (Q96SW2 whole entry): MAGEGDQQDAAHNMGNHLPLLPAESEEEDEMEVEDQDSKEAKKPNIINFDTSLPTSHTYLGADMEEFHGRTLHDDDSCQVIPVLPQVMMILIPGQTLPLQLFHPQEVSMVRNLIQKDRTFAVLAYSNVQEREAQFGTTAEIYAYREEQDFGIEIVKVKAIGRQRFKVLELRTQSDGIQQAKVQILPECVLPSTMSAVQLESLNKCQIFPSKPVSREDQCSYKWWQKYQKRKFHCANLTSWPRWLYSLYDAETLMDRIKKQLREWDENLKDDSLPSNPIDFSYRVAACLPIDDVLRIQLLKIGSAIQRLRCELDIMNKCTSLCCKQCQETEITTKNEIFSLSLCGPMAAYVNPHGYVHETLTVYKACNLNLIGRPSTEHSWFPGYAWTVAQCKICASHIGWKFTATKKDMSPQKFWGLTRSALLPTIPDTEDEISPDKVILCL
T2 sequence (Q16531 whole entry partner): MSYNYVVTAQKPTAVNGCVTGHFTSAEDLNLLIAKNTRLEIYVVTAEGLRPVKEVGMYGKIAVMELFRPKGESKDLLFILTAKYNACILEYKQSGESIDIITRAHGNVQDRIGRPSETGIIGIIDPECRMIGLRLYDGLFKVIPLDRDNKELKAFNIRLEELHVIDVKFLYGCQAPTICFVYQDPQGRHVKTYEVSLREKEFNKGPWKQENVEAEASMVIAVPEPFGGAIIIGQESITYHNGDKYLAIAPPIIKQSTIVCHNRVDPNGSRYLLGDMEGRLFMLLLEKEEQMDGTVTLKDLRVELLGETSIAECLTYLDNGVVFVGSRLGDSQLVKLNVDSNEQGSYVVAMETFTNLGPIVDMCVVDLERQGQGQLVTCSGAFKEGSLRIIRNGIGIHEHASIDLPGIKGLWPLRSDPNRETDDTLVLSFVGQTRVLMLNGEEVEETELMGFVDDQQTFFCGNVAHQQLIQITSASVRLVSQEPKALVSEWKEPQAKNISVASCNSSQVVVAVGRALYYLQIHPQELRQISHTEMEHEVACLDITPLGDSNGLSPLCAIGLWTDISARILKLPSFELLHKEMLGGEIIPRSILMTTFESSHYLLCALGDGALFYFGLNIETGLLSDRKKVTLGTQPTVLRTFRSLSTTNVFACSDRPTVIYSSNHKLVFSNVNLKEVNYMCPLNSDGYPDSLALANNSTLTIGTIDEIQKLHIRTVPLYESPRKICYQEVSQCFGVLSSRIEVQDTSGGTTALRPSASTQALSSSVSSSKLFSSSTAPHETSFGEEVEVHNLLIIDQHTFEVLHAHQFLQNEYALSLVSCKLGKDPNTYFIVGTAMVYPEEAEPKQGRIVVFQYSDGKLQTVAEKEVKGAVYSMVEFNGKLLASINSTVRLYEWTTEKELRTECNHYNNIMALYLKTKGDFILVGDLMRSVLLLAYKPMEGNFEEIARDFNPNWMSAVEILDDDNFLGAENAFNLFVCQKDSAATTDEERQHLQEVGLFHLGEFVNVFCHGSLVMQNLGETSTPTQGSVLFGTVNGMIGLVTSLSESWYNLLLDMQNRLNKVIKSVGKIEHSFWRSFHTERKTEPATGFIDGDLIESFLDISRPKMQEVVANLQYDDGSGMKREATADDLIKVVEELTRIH

CK1α = molecular target: T3, CK1α (Homo sapiens, UniProt P48729+Q96SW2); experiment: Western-blot assay, substrate protein degradation in hPBMCs: CK1α; format: cell-based; conditions: 24 hours of compound treatment, 50 nM and 500 nM
T3 construct: effects of the compounds of the present disclosure on the expression of target proteins in cells; endogenous in cells; host or cells: human PBMCs (hPBMCs)
T3 sequence (P48729 whole entry): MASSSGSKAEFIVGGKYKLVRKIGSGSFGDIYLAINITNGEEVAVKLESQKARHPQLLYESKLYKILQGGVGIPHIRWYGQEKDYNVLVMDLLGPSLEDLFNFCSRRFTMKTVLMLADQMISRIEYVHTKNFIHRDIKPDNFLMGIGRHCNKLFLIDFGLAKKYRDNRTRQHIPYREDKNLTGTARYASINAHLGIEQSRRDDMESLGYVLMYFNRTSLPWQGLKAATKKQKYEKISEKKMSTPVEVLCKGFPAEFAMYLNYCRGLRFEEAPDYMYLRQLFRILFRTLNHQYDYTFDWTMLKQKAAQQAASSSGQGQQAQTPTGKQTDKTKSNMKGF
T3 sequence (Q96SW2 whole entry): as the sequence (Q96SW2 whole entry) above
T3 sequence (Q16531 whole entry partner): as the sequence (Q16531 whole entry partner) above

MDA-MB-231 = experiment: Cell viability assay (CellTiter-Meiluncell Luminescent), tumor cell proliferation, MDA-MB-231; conditions: Homo sapiens, MDA-MB-231, 96 h; for inhibition at 0.01 µM: read-out: Inhibition Rate at 10 nM (%); for inhibition at 0.5 µM: read-out: Inhibition Rate at 500 nM (%)
GSPT1 = molecular target: T4, GSPT1 (Homo sapiens, UniProt P15170+Q96SW2); experiment: Western-blot assay, substrate protein degradation in hPBMCs: GSPT1; format: cell-based; conditions: 24 hours of compound treatment, 50 nM and 500 nM
T4 construct: effects of the compounds of the present disclosure on the expression of target proteins in cells; endogenous in cells; host or cells: human PBMCs (hPBMCs)
T4 sequence (P15170 whole entry): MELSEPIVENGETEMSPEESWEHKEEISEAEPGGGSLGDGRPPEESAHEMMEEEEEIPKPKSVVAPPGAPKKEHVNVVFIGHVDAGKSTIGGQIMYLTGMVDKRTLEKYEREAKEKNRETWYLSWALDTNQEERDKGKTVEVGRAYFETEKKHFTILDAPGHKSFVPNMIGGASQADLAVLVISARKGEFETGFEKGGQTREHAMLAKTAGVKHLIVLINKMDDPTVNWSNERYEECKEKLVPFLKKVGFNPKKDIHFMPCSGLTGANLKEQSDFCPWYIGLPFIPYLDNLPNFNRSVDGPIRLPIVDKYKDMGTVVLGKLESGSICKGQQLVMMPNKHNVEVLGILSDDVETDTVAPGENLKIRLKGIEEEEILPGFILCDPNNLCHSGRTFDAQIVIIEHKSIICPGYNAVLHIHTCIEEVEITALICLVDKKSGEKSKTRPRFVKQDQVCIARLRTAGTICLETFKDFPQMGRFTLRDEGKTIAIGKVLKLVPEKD
T4 sequence (Q96SW2 whole entry): as the sequence (Q96SW2 whole entry) above
T4 sequence (Q16531 whole entry partner): as the sequence (Q16531 whole entry partner) above

IKZF1 = molecular target: T5, IKZF1 (Homo sapiens, UniProt Q13422+Q96SW2); experiment: Western-blot assay, substrate protein degradation in hPBMCs: IKZF1; format: cell-based; conditions: 24 hours of compound treatment, 50 nM and 500 nM
T5 construct: effects of the compounds of the present disclosure on the expression of target proteins in cells; endogenous in cells; host or cells: human PBMCs (hPBMCs)
T5 sequence (Q13422 whole entry): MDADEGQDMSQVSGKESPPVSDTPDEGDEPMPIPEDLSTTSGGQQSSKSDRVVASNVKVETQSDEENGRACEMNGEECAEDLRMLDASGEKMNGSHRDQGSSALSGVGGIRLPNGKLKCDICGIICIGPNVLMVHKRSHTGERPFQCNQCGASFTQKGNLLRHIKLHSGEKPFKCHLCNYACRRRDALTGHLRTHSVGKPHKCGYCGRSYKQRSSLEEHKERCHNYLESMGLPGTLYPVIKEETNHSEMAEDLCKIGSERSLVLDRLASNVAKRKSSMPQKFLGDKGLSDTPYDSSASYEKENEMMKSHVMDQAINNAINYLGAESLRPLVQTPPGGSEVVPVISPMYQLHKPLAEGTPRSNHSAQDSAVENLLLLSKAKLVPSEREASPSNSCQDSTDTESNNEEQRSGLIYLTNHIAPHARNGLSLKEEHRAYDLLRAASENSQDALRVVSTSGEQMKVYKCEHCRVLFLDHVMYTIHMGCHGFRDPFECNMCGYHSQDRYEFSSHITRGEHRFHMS
T5 sequence (Q96SW2 whole entry): as the sequence (Q96SW2 whole entry) above
T5 sequence (Q16531 whole entry partner): as the sequence (Q16531 whole entry partner) above

WEE1 = molecular target: T6, WEE1 (Homo sapiens, UniProt P30291+Q96SW2); experiment: Western-blot assay, substrate protein degradation in hPBMCs: WEE1; format: cell-based; conditions: 24 hours of compound treatment, 50 nM and 500 nM
T6 construct: effects of the compounds of the present disclosure on the expression of target proteins in cells; endogenous in cells; host or cells: human PBMCs (hPBMCs)
T6 sequence (P30291 whole entry): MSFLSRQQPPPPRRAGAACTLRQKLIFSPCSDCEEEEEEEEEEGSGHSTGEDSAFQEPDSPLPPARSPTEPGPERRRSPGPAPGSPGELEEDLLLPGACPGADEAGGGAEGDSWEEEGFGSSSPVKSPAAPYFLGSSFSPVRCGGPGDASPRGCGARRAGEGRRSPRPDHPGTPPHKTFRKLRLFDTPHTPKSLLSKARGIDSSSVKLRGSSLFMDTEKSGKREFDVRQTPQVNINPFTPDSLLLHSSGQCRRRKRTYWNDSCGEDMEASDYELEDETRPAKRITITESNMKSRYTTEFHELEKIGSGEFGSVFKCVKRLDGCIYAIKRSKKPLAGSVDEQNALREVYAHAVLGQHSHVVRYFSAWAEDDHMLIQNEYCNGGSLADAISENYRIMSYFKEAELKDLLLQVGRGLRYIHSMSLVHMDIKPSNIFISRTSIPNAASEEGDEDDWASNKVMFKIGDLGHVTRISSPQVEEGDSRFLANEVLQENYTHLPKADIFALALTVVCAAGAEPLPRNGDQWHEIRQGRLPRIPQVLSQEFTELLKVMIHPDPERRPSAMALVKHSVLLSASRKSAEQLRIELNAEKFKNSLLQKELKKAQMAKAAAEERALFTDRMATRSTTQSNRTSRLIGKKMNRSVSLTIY
T6 sequence (Q96SW2 whole entry): as the sequence (Q96SW2 whole entry) above
T6 sequence (Q16531 whole entry partner): as the sequence (Q16531 whole entry partner) above

H2228 = experiment: Cell viability assay (CellTiter-Meiluncell Luminescent), tumor cell proliferation, H2228; conditions: Homo sapiens, NCI-H2228, 96 h; for inhibition at 0.01 µM: read-out: Inhibition Rate at 10 nM (%); for inhibition at 0.5 µM: read-out: Inhibition Rate at 500 nM (%)
Procedure: The tumor cells used herein were cultured in a cell culture medium listed in table 2 at 37°C in an incubator with 5% CO2. Prior to experimentation, all cell lines used were correctly identified by STR profiling, and tested negative for mycoplasma contamination using a mycoplasma detection kit through routine screenings.
On the following day, the test compounds of the present disclosure were subjected to serial dilution. […] Subsequently, 0.5 µL of the test compound dilution was transferred into the 96-well plate containing the cells, with each well containing 100 µL of cell culture medium. […] Into the 96-well plate, the diluted test compounds and corresponding detection reagents were added, resulting in final test compound concentrations of 500 nM and 10 nM, respectively. The experimental procedure is described below using the diluted 2 µM test compound as an example.
After the cells were treated with the compounds of the present disclosure for a specified period, the cell viability assay reagent was added to the culture medium according to the kit's instructions to determine cell viability. […] All controls were treated using the same procedure as the compounds of the present disclosure. The growth inhibition curves for the compounds of the present disclosure were plotted using Prism GraphPad software, and the IC50 values were calculated therefrom.

H292 = experiment: Cell viability assay (CellTiter-Meiluncell Luminescent), tumor cell proliferation, H292; conditions: Homo sapiens, NCI-H292, 96 h; for inhibition at 0.01 µM: read-out: Inhibition Rate at 10 nM (%); for inhibition at 0.5 µM: read-out: Inhibition Rate at 500 nM (%)

Cc1csc2ncnc(N3CCN(Cc4ccc5c(c4)C(=O)N(N4CCC(=O)NC4=O)C5=O)CC3)c12 [GT-08091, 2-(2,4-dioxotetrahydropyrimidin-1(2H)-yl)-5-((4-(5-methylthieno[2,3-d]pyrimidin-4-yl)piperazin-1-yl)methyl)isoindoline-1,3-dione]
substrate protein remaining % IKZF3 (IKZF3): B (80%< substrate protein remaining %≤ 100%) | substrate protein remaining % IKZF2 (IKZF2): B (80%< substrate protein remaining %≤ 100%) | substrate protein remaining % CK1α (CK1α): A (0% ≤ substrate protein remaining % ≤ 80%) | inhibition at 0.01 µM (MDA-MB-231): 15 to 18% | inhibition at 0.5 µM (MDA-MB-231): 18 to 25% | substrate protein remaining % GSPT1 (GSPT1): A (0% ≤ substrate protein remaining % ≤ 80%) | substrate protein remaining % IKZF1 (IKZF1): B (80%< substrate protein remaining %≤ 100%) | substrate protein remaining % WEE1 (WEE1): A (0% ≤ substrate protein remaining % ≤ 80%) | inhibition at 0.01 µM (H2228): 20 to 25% | inhibition at 0.5 µM (H2228): 20 to 25% | inhibition at 0.01 µM (H292): 20 to 40% | inhibition at 0.5 µM (H292): 20 to 40%

Cc1sc2ncnc(N3CCN(Cc4ccc5c(c4)C(=O)N(N4CCC(=O)NC4=O)C5=O)CC3)c2c1C [GT-08094, 5-((4-(5,6-dimethylthieno[2,3-d]pyrimidin-4-yl)piperazin-1-yl)methyl)-2-(2,4-dioxotetrahydropyrimidin-1(2H)-yl)isoindoline-1,3-dione]
substrate protein remaining % IKZF3 (IKZF3): B (80%< substrate protein remaining %≤ 100%) | substrate protein remaining % IKZF2 (IKZF2): B (80%< substrate protein remaining %≤ 100%) | substrate protein remaining % CK1α (CK1α): A (0% ≤ substrate protein remaining % ≤ 80%) | inhibition at 0.01 µM (MDA-MB-231): 25 to 40% | inhibition at 0.5 µM (MDA-MB-231): 25 to 40% | substrate protein remaining % GSPT1 (GSPT1): A (0% ≤ substrate protein remaining % ≤ 80%) | substrate protein remaining % IKZF1 (IKZF1): B (80%< substrate protein remaining %≤ 100%) | substrate protein remaining % WEE1 (WEE1): A (0% ≤ substrate protein remaining % ≤ 80%) | inhibition at 0.01 µM (H2228): 30 to 40% | inhibition at 0.5 µM (H2228): 25 to 30% | inhibition at 0.01 µM (H292): 20 to 40% | inhibition at 0.5 µM (H292): 20 to 40%

O=C1CCN(N2C(=O)c3ccc(CN4CCN(c5ncnc6sc(-c7ccccc7)cc56)CC4)cc3C2=O)C(=O)N1 [GT-08097, 2-(2,4-dioxotetrahydropyrimidin-1(2H)-yl)-5-((4-(6-phenylthieno[2,3-d]pyrimidin-4-yl)piperazin-1-yl)methyl)isoindoline-1,3-dione]
substrate protein remaining % IKZF3 (IKZF3): B (80%< substrate protein remaining %≤ 100%) | substrate protein remaining % IKZF2 (IKZF2): B (80%< substrate protein remaining %≤ 100%) | substrate protein remaining % CK1α (CK1α): A (0% ≤ substrate protein remaining % ≤ 80%) | inhibition at 0.01 µM (MDA-MB-231): 10 to 15% | inhibition at 0.5 µM (MDA-MB-231): 18 to 25% | substrate protein remaining % GSPT1 (GSPT1): A (0% ≤ substrate protein remaining % ≤ 80%) | substrate protein remaining % IKZF1 (IKZF1): B (80%< substrate protein remaining %≤ 100%) | substrate protein remaining % WEE1 (WEE1): A (0% ≤ substrate protein remaining % ≤ 80%) | inhibition at 0.01 µM (H2228): 15 to 20% | inhibition at 0.5 µM (H2228): 30 to 40% | inhibition at 0.01 µM (H292): 5 to 10% | inhibition at 0.5 µM (H292): 10 to 15%

Cc1nc(C2CCN(Cc3ccc4c(c3)C(=O)N(N3CCC(=O)NC3=O)C4=O)CC2)c2c3c(sc2n1)CCCC3 [GT-08111, 2-(2,4-dioxotetrahydropyrimidin-1(2H)-yl)-5-((4-(2-methyl-5,6,7,8-tetrahydrobenzo[4,5]thieno[2,3-d]pyrimidin-4-yl)piperidin-1-yl)methyl)isoindoline-1,3-dione]
substrate protein remaining % IKZF3 (IKZF3): B (80%< substrate protein remaining %≤ 100%) | substrate protein remaining % IKZF2 (IKZF2): B (80%< substrate protein remaining %≤ 100%) | substrate protein remaining % CK1α (CK1α): A (0% ≤ substrate protein remaining % ≤ 80%) | inhibition at 0.01 µM (MDA-MB-231): 25 to 40% | inhibition at 0.5 µM (MDA-MB-231): 25 to 40% | substrate protein remaining % GSPT1 (GSPT1): A (0% ≤ substrate protein remaining % ≤ 80%) | substrate protein remaining % IKZF1 (IKZF1): B (80%< substrate protein remaining %≤ 100%) | substrate protein remaining % WEE1 (WEE1): B (80%< substrate protein remaining %≤ 100%) | inhibition at 0.01 µM (H2228): 20 to 25% | inhibition at 0.5 µM (H2228): 25 to 30% | inhibition at 0.01 µM (H292): 20 to 40% | inhibition at 0.5 µM (H292): 20 to 40%

O=C1CCN(N2Cc3cc(CN4CCC(c5ncnc6sc7c(c56)CCCC7)CC4)ccc3C2=O)C(=O)N1 [GT-08112, 1-(1-oxo-5-((4-(5,6,7,8-tetrahydrobenzo[4,5]thieno[2,3-d]pyrimidin-4-yl)piperidin-1-yl)methyl)isoindolin-2-yl)dihydropyrimidine-2,4(1H,3H)-dione]
substrate protein remaining % IKZF3 (IKZF3): B (80%< substrate protein remaining %≤ 100%) | substrate protein remaining % IKZF2 (IKZF2): B (80%< substrate protein remaining %≤ 100%) | substrate protein remaining % CK1α (CK1α): B (80%< substrate protein remaining %≤ 100%) | inhibition at 0.01 µM (MDA-MB-231): 15 to 18% | inhibition at 0.5 µM (MDA-MB-231): 25 to 40% | substrate protein remaining % GSPT1 (GSPT1): A (0% ≤ substrate protein remaining % ≤ 80%) | substrate protein remaining % IKZF1 (IKZF1): B (80%< substrate protein remaining %≤ 100%) | substrate protein remaining % WEE1 (WEE1): B (80%< substrate protein remaining %≤ 100%) | inhibition at 0.01 µM (H2228): 15 to 20% | inhibition at 0.5 µM (H2228): 25 to 30% | inhibition at 0.01 µM (H292): 15 to 20% | inhibition at 0.5 µM (H292): 20 to 40%
